The values below come from BindingDB's records for doi:10.1021/acs.jmedchem.0c01153 (Tokyo Medical and Dental University (Tmdu), 2021).

Assay [1] in a line: Inhibition of HIV1 KP-5mvcR gp120 interaction with CD4 in human TZM-bl cells assessed as decrease in viral entry by MTT assay.
Assay [2] can be described thus: Inhibition of HIV1 KP-5mp1 gp120 interaction with CD4 human TZM-bl cells assessed as decrease in viral entry by MTT assay. For orientation: Tetrazolium assays rely on reduction of a dye to a coloured formazan, in cell work by metabolically active cells.

Broadly, the IC50 is the midpoint of a concentration-inhibition curve. Consider `N=C(N)NCCCCCCCCCCC(=O)NCCN1CCC(NC(=O)C(=O)Nc2ccc(Cl)cc2)CC12CCCCC2` (stereo not given), for which the values for the IC50 in assay [1] and in assay [2] were 0.72 µM and 43 µM, respectively.

On to `N=C(N)NCCCCC(=O)NCCN1CCC(NC(=O)C(=O)Nc2ccc(Cl)cc2)CC12CCCCC2` (stereo not given), for which the IC50 in assay [1] came to 0.12 µM; in assay [2], 2.1 µM.

For the compound `N=C(N)NCCCC[C@H](NC(=N)N)C(=O)NCCN1CCC(NC(=O)C(=O)Nc2ccc(Cl)cc2)CC12CCCCC2` (stereo not given in full), the results for the IC50 in assay [1] and in assay [2] were 0.29 µM and 3.9 µM, respectively.

In the case of `N=C(N)NCC(=O)NCCCC[C@H](NC(=N)N)C(=O)NCCN1CCC(NC(=O)C(=O)Nc2ccc(Cl)cc2)CC12CCCCC2` (stereo not given in full), the values for the IC50 in assay [1] and in assay [2] were 0.23 µM and 4.4 µM, respectively.

As for `N=C(N)NCCCCC(=O)NCCCC[C@H](NC(=N)N)C(=O)NCCN1CCC(NC(=O)C(=O)Nc2ccc(Cl)cc2)CC12CCCCC2` (stereo not given in full), the IC50 in assay [1] is 0.33 µM; in assay [2], 13 µM.

As to `N=C(N)NCCCCCCCC(=O)NCCCC[C@H](NC(=N)N)C(=O)NCCN1CCC(NC(=O)C(=O)Nc2ccc(Cl)cc2)CC12CCCCC2` (stereo not given in full), the values for the IC50 in assay [1] and in assay [2] were 0.42 µM and 2.9 µM, respectively.

Regarding `N=C(N)NCCCCCCCCCCC(=O)NCCCC[C@H](NC(=N)N)C(=O)NCCN1CCC(NC(=O)C(=O)Nc2ccc(Cl)cc2)CC12CCCCC2` (stereo not given in full), the IC50 in assay [1] amounted to 0.88 µM; in assay [2], 4.8 µM.

For `CCCCCCCCCCCCCCCCNC(=O)CCC(=O)OC(CCCNS(=O)(=O)c1ccc([N+](=O)[O-])cc1)C(=O)NCCN1CCC(NC(=O)C(=O)Nc2ccc(Cl)cc2)CC12CCCCC2` (stereo not given), in assay [1], the IC50 came to 3.4 µM.

For the compound `COCCOCCOCCOCCOCCNC(=O)CCC(=O)OC(CCCNS(=O)(=O)c1ccc([N+](=O)[O-])cc1)C(=O)NCCN1CCC(NC(=O)C(=O)Nc2ccc(Cl)cc2)CC12CCCCC2` (stereo not given), in assay [1], the IC50 was 0.57 µM.

Consider `CCCCCCCCCCCCCCCCNC(=O)CCC(=O)OC(CCCN)C(=O)NCCN1CCC(NC(=O)C(=O)Nc2ccc(Cl)cc2)CC12CCCCC2` (stereo not given), for which the IC50 in assay [1] was found to be 0.25 µM.

Take `COCCOCCOCCOCCOCCNC(=O)CCC(=O)OC(CCCN)C(=O)NCCN1CCC(NC(=O)C(=O)Nc2ccc(Cl)cc2)CC12CCCCC2` (stereo not given): the IC50 in assay [1] is 0.046 µM.

Take `CCCCCCCCCCCCCCCCNC(=O)CCC(=O)OC(CCCNC(=N)N)C(=O)NCCN1CCC(NC(=O)C(=O)Nc2ccc(Cl)cc2)CC12CCCCC2` (stereo not given): the IC50 in assay [1] turned out to be 1.2 µM.

`COCCOCCOCCOCCOCCNC(=O)CCC(=O)OC(CCCNC(=N)N)C(=O)NCCN1CCC(NC(=O)C(=O)Nc2ccc(Cl)cc2)CC12CCCCC2` (stereo not given): the IC50 in assay [1] was found to be 0.017 µM.

Turning to `COCCOCCOCCOCCOCCNC(=O)CCC(=O)N[C@@H](CCCNC(=N)N)C(=O)NCCN1CCC(NC(=O)C(=O)Nc2ccc(Cl)cc2)CC12CCCCC2` (stereo not given in full), in assay [1], the IC50 came out at 0.13 µM.

Consider `COCCOCCOCCOCCOCCOCCOCCOCCOCCOCCOCCOCCNC(=O)CCC(=O)N[C@@H](CCCNC(=N)N)C(=O)NCCN1CCC(NC(=O)C(=O)Nc2ccc(Cl)cc2)CC12CCCCC2` (stereo not given in full), for which the IC50 in assay [1] was below 0.1 µM.

As to `COCCOCCOCCOCCOCCOCCOCCOCCOCCOCCOCCOCCOCCOCCOCCOCCOCCOCCOCCOCCOCCOCCOCCOCCNC(=O)CCC(=O)N[C@@H](CCCNC(=N)N)C(=O)NCCN1CCC(NC(=O)C(=O)Nc2ccc(Cl)cc2)CC12CCCCC2` (stereo not given in full), in assay [1], the IC50 was below 0.1 µM.

Turning to `N=C(N)NCCCCCCCC(=O)NCCN1CCC(NC(=O)C(=O)Nc2ccc(Cl)cc2)CC12CCCCC2` (stereo not given), in assay [2], the IC50 was above 100 µM.

Regarding `CC1(C)CC(NC(=O)C(=O)Nc2ccc(Cl)cc2)CC(C)(C)N1` [N-(4-chlorophenyl)-N'-(2,2,6,6-tetramethylpiperidin-4-yl)-oxalamide], the IC50 in assay [2] came to 6.9 µM.
